Consider 2 compounds from US12077768B2, “Plants having increased tolerance to herbicides” (BASF AGRO B.V., priority 2013, dated 2024).

Where two headings read alike, the source gives them in different places.

For experiment [1], the system named is empty vector-transformed leaf discs. Description: PSII yield inhibition (chlorophyll fluorescence, imaging PAM) in empty vector-transformed tobacco leaf discs. Type of experiment: cell-based. The note with it: Nicotiana benthamiana, read-out: IC50 of PSII yield inhibition.
Experiment [2] deals with mutated PPO sequences (e.g. SEQ ID NOs: 1, 30, 31, 11, 37, and 117) as wildtype or with respective mutations, expressed in leaf discs. Briefly: Herbicide tolerance of transiently transformed tobacco leaf discs expressing wildtype or mutated PPO: tolerance factors from IC50 of PSII yield inhibition versus empty vector. The note with it: 48 h herbicide treatment. In kind it is cell-based, Nicotiana benthamiana.

Usually IC50 stands for the concentration at which inhibition is half-maximal. As for `CC(C)N(C)S(=O)(=O)NC(=O)c1cc(-n2c(=O)cc(C(F)(F)F)n(C)c2=O)c(F)cc1Cl` [Saflufenacil, saflufenacil], in experiment [1] (48 h), the IC50 was 110 nM.
Take `C#CCN1C(=O)C(F)(F)Oc2cc(F)c(-n3c(=O)n(C)c(=S)n(C)c3=O)cc21` [1,5-dimethyl-6-thioxo-3-(2,2,7-trifluoro-3-oxo-4-(prop-2-ynyl)-3,4-dihydro-2H-benzo[b][1,4]oxazin-6-yl)-1,3,5-triazinane-2,4-dione]: the IC50 in experiment [1] (empty vector-transformed leaf discs, treated for 48 h) is 11 nM. In addition, the “Tolerance factor (IC50 of PSII yield inhibition, transformed versus empty vector-transformed leaf discs)” value in experiment [2] (Bn_PPO2_A_L371E_F394M, Brassica napus, SEQ ID 117) worked out at 10; in experiment [2] (Bn_PPO2_A_L371E_F394V, Brassica napus, SEQ ID 117), 13; in experiment [2] (Bn_PPO2_A_L371Q_F394M, Brassica napus, SEQ ID 117) it was 10; in experiment [2] (Bn_PPO2_A_L371Q_F394V, Brassica napus, SEQ ID 117), 14; in experiment [2] (Bn_PPO2_A_R99A_F394V, Brassica napus, SEQ ID 117), 1; in experiment [2] (Bn_PPO2_A_wt, Brassica napus, SEQ ID 117), 1. The “Tolerance factor (IC50 of PSII yield inhibition, transformed versus empty vector-transformed leaf discs)” value was 50 in experiment [2] (Gm_PPO2_L367E_F390M, Glycine max, SEQ ID 11); 15 in experiment [2] (Gm_PPO2_L367E_F390V, Glycine max, SEQ ID 11); 14 in experiment [2] (Gm_PPO2_L367Q_F390M, Glycine max, SEQ ID 11); 26 in experiment [2] (Gm_PPO2_L367Q_F390V, Glycine max, SEQ ID 11); 14 in experiment [2] (Gm_PPO2_R98A_F390V, Glycine max, SEQ ID 11); 1 in experiment [2] (Gm_PPO2_wt, Glycine max, SEQ ID 11). In addition, the “Tolerance factor (IC50 of PSII yield inhibition, transformed versus empty vector-transformed leaf discs)” value came to 2454 in experiment [2] (Os_PPO2_L374E_F397M, Oryza sativa, SEQ ID 37); 43 in experiment [2] (Os_PPO2_L374E_F397V, Oryza sativa, SEQ ID 37); 14 in experiment [2] (Os_PPO2_L374Q_F397M, Oryza sativa, SEQ ID 37); 8766 in experiment [2] (Zm_PPO2_L410E_F433M, Zea mays, SEQ ID 30, 31); 385 in experiment [2] (Zm_PPO2_L410Q_F433M, Zea mays, SEQ ID 30, 31); 15 in experiment [2] (Zm_PPO2_L410Q_F433V, Zea mays, SEQ ID 30, 31). The “Tolerance factor (IC50 of PSII yield inhibition, transformed versus empty vector-transformed leaf discs)” value in experiment [2] (Zm_PPO2_R130A_F433V, Zea mays, SEQ ID 30, 31) is on record as 8766.
